Assay results: patent publication US20240043427A1 (Gilead Sciences, Inc., priority 2020, published 2024)

Assays:
CD73 [1] = molecular target: T1, CD73 (Homo sapiens (Human), UniProt P21589); experiment: MDA-MB-231 Cell Based CD73 Activity Assay (DMEM); settings: MDA-MB-231-GFP cells, DMEM medium with 10% human plasma, 200 uM AMP
Description: MDA-MB-231 Cell Based CD73 Activity Assay (DMEM) MDA-MB-231-GFP cells were seeded in 384-well plates (Greiner 781946) at a density of 3000 cells per well in 50 μL of DMEM medium with 10% HP (human plasma). Cells were plated into assay plate with compounds pre-spotted, for an overnight compound treatment. 50 uL of 400 uM AMP (final concentration will be 200 uM) was added using Bio-tek dispenser. Plates were incubated for 100 mins. […] The samples were analyzed using Rapid fire.

CD73 [2] = molecular target: T1, CD73; type: biochemical; settings: 1 mM NaH2PO4 in enzyme buffer, CD73 0.3 nM, AMP 15 uM

T1 sequence (P21589 27-574): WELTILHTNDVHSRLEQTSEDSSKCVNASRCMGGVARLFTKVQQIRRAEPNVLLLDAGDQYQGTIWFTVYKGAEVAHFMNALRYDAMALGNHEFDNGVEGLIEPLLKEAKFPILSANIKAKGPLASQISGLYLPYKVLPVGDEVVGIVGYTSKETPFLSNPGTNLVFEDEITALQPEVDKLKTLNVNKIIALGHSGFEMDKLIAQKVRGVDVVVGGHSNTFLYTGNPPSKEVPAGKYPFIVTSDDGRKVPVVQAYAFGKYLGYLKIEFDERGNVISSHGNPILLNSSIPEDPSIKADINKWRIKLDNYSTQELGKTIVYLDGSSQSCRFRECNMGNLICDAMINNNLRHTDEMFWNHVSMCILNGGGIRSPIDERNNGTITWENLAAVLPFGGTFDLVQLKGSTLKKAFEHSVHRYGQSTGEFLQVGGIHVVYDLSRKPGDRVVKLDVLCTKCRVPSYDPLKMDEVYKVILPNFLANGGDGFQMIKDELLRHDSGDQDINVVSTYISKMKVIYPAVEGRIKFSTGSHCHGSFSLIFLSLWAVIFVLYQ

Structure (SMILES)	EC50 (CD73 [1])	IC50 (CD73 [2])
O=c1[nH]cc(-c2cc([C@H]3C[C@@H]3c3ccc4cnn(CC(F)(F)F)c4n3)c3nccn3n2)c(=O)[nH]1 (racemic) [Example 601, 5-(8-((1S,2S)-2-(1-(2,2,2-trifluoroethyl)-1H-pyrazolo[3,4-b]pyridin-6-yl)cyclopropyl)imidazo[1,2-b]pyridazin-6-yl)pyrimidine-2,4(1H,3H)-dione]	0.17 nM	1.16 nM
O=c1[nH]cc(-c2cc([C@H]3C[C@@H]3c3ccc4cnn(CC(F)(F)F)c4n3)c3ncc(F)n3n2)c(=O)[nH]1 (racemic) [Example 602, 5-(3-fluoro-8-((1S,2S)-2-(1-(2,2,2-trifluoroethyl)-1H-pyrazolo[3,4-b]pyridin-6-yl)cyclopropyl)imidazo[1,2-b]pyridazin-6-yl)pyrimidine-2,4(1H,3H)-dione]	0.53 nM	0.93 nM
O=c1[nH]cc(-c2cc([C@H]3C[C@@H]3c3ccc4nc(C(F)(F)F)n(CC(F)(F)F)c4c3)c3nccn3n2)c(=O)[nH]1 (racemic) [Example 603, 5-(8-((1S,2S)-2-(1-(2,2,2-trifluoroethyl)-2-(trifluoromethyl)-1H-benzo[d]imidazol-6-yl)cyclopropyl)imidazo[1,2-b]pyridazin-6-yl)pyrimidine-2,4(1H,3H)-dione]	0.09 nM	1.94 nM
O=c1[nH]cc(-c2cc([C@H]3C[C@@H]3c3cc4c(cn3)cnn4CC(F)(F)F)c3ncc(F)n3n2)c(=O)[nH]1 (racemic) [Example 604, 5-(3-fluoro-8-((1S,2S)-2-(1-(2,2,2-trifluoroethyl)-1H-pyrazolo[4,3-c]pyridin-6-yl)cyclopropyl)imidazo[1,2-b]pyridazin-6-yl)pyrimidine-2,4(1H,3H)-dione]	0.12 nM	0.83 nM
O=c1[nH]cc(-c2cc([C@H]3C[C@@H]3c3ccc4cnc(CC(F)(F)F)n4c3)c3nccn3n2)c(=O)[nH]1 (racemic) [Example 605, 5-(8-((1S,2S)-2-(3-(2,2,2-trifluoroethyl)imidazo[1,5-a]pyridin-6-yl)cyclopropyl)imidazo[1,2-b]pyridazin-6-yl)pyrimidine-2,4(1H,3H)-dione]	0.12 nM	1.26 nM
O=c1[nH]cc(-c2cc([C@H]3C[C@@H]3c3cc4c(cn3)c(C(F)(F)F)nn4CC(F)(F)F)c3nccn3n2)c(=O)[nH]1 (racemic) [Example 608, 5-(8-((1S,2S)-2-(1-(2,2,2-trifluoroethyl)-3-(trifluoromethyl)-1H-pyrazolo[4,3-c]pyridin-6-yl)cyclopropyl)imidazo[1,2-b]pyridazin-6-yl)pyrimidine-2,4(1H,3H)-dione]	0.48 nM	2.36 nM
O=c1[nH]cc(-c2cc([C@H]3C[C@@H]3c3ccc4c(C(F)(F)F)nc(CC(F)(F)F)n4c3)c3nccn3n2)c(=O)[nH]1 (racemic) [Example 609, 5-(8-((1S,2S)-2-(3-(2,2,2-trifluoroethyl)-1-(trifluoromethyl)imidazo[1,5-a]pyridin-6-yl)cyclopropyl)imidazo[1,2-b]pyridazin-6-yl)pyrimidine-2,4(1H,3H)-dione]	0.39 nM	2.36 nM
O=c1[nH]cc(-c2cc([C@H]3C[C@@H]3c3ncc4cnn(CC(F)(F)F)c4c3F)c3nccn3n2)c(=O)[nH]1 (racemic) [Example 615, 5-(8-((1S,2S)-2-(7-fluoro-1-(2,2,2-trifluoroethyl)-1H-pyrazolo[4,3-c]pyridin-6-yl)cyclopropyl)imidazo[1,2-b]pyridazin-6-yl)pyrimidine-2,4(1H,3H)-dione]	0.28 nM	1.54 nM
O=c1[nH]cc(-c2cc([C@H]3C[C@@H]3c3ccc4nc5n(c4c3)C(C(F)(F)F)CC5)c3nccn3n2)c(=O)[nH]1 (mixture of isomers) [Example 616, 5-(8-((1S,2S)-2-(1-(trifluoromethyl)-2,3-dihydro-1H-benzo[d]pyrrolo[1,2-a]imidazol-7-yl)cyclopropyl)imidazo[1,2-b]pyridazin-6-yl)pyrimidine-2,4(1H,3H)-dione]	0.2 nM	2.3 nM
O=c1[nH]cc(-c2cc([C@H]3C[C@@H]3c3cnc4cnn(CC(F)(F)F)c4c3)c3ncc(F)n3n2)c(=O)[nH]1 (racemic) [Example 619, 5-(3-fluoro-8-((1S,2S)-2-(1-(2,2,2-trifluoroethyl)-1H-pyrazolo[4,3-b]pyridin-6-yl)cyclopropyl)imidazo[1,2-b]pyridazin-6-yl)pyrimidine-2,4(1H,3H)-dione]	0.14 nM	0.95 nM
O=c1[nH]cc(-c2cc([C@H]3C[C@@H]3c3ncc4cnn(CC(F)(F)F)c4c3F)c3ncc(F)n3n2)c(=O)[nH]1 (racemic) [Example 621, 5-(3-fluoro-8-((1S,2S)-2-(7-fluoro-1-(2,2,2-trifluoroethyl)-1H-pyrazolo[4,3-c]pyridin-6-yl)cyclopropyl)imidazo[1,2-b]pyridazin-6-yl)pyrimidine-2,4(1H,3H)-dione]	0.32 nM	1.32 nM
O=c1[nH]cc(-c2cc([C@H]3C[C@@H]3c3cc(-c4ccccc4C(F)(F)F)ccn3)c3nccn3n2)c(=O)[nH]1 (racemic) [Example 622, 5-(8-((1S,2S)-2-(4-(2-(trifluoromethyl)phenyl)pyridin-2-yl)cyclopropyl)imidazo[1,2-b]pyridazin-6-yl)pyrimidine-2,4(1H,3H)-dione]	27.3 nM	2.87 nM
O=c1[nH]cc(-c2cc([C@H]3C[C@@H]3c3cc(-c4ccc(F)cc4F)ccn3)c3nccn3n2)c(=O)[nH]1 (racemic) [Example 623, 5-(8-((1S,2S)-2-(4-(2,4-difluorophenyl)pyridin-2-yl)cyclopropyl)imidazo[1,2-b]pyridazin-6-yl)pyrimidine-2,4(1H,3H)-dione]	22 nM	2.27 nM
O=c1[nH]cc(-c2cc([C@H]3C[C@@H]3c3cc4c(cn3)nc(C(F)(F)F)n4CC(F)(F)F)c3nccn3n2)c(=O)[nH]1 (racemic) [Example 624, 5-(8-((1S,2S)-2-(1-(2,2,2-trifluoroethyl)-2-(trifluoromethyl)-1H-imidazo[4,5-c]pyridin-6-yl)cyclopropyl)imidazo[1,2-b]pyridazin-6-yl)pyrimidine-2,4(1H,3H)-dione]	0.32 nM	5.81 nM
O=c1[nH]cc(-c2cc([C@H]3C[C@@H]3c3ccn4c(C(F)(F)F)ncc4c3)c3nccn3n2)c(=O)[nH]1 (racemic) [Example 625, 5-(8-((1S,2S)-2-(3-(trifluoromethyl)imidazo[1,5-a]pyridin-7-yl)cyclopropyl)imidazo[1,2-b]pyridazin-6-yl)pyrimidine-2,4(1H,3H)-dione]	10.1 nM	2.47 nM
O=c1[nH]cc(-c2cc([C@H]3C[C@@H]3c3ccc4nc(C(F)F)n(CC(F)(F)F)c4c3)c3nccn3n2)c(=O)[nH]1 (racemic) [Example 626, 5-(8-((1S,2S)-2-(2-(difluoromethyl)-1-(2,2,2-trifluoroethyl)-1H-benzo[d]imidazol-6-yl)cyclopropyl)imidazo[1,2-b]pyridazin-6-yl)pyrimidine-2,4(1H,3H)-dione]	0.26 nM	5.16 nM
O=c1[nH]cc(-c2cc([C@H]3C[C@@H]3c3cc(OCC(F)(F)F)c4cccnc4c3)c3nccn3n2)c(=O)[nH]1 (racemic) [Example 627, 5-(8-((1S,2S)-2-(5-(2,2,2-trifluoroethoxy)quinolin-7-yl)cyclopropyl)imidazo[1,2-b]pyridazin-6-yl)pyrimidine-2,4(1H,3H)-dione]	> 50 nM	2.57 nM
